Tested on: Genes belonging to other category
Assay: DNA chip mRNA expression in yeast, genes belonging to other category (Table 9)
Format: cell-based, Saccharomyces cerevisiae S288C
How it was run: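 First, S288C yeast grown in YPD at 25° C. are dosed in log phase with one toxicant (growth-inhibiting, not lethal) for 2 h. Next, total RNA is extracted and poly(A) mRNA isolated and reverse-transcribed with Cy3/Cy5-dUTP. Finally, whole-genome chip fluorescence is read relative to unexposed cells.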

In the case of `COc1cc(CNC(=O)CCCCC=CC(C)C)ccc1O` [(12), 8-methyl-N-vanillyl-6-nonenamide], the “The level of expressed mRNA in the presence of chemical substance/The level of expressed mRNA in the absence of chemical substance” value (yeast gene YJL116C) is reported as 1.1, the “The level of expressed mRNA in the presence of chemical substance/The level of expressed mRNA in the absence of chemical substance” value (yeast gene YJL164C) is reported as 1.0 and the “The level of expressed mRNA in the presence of chemical substance/The level of expressed mRNA in the absence of chemical substance” value (yeast gene YJL210W) is reported as 1.0. For the same compound, the “The level of expressed mRNA in the presence of chemical substance/The level of expressed mRNA in the absence of chemical substance” value (yeast gene YJR004C) was 0.8, the “The level of expressed mRNA in the presence of chemical substance/The level of expressed mRNA in the absence of chemical substance” value (yeast gene YJR049C) was 1.0 and the “The level of expressed mRNA in the presence of chemical substance/The level of expressed mRNA in the absence of chemical substance” value (yeast gene YJR086W) was 0.8. The “The level of expressed mRNA in the presence of chemical substance/The level of expressed mRNA in the absence of chemical substance” value (yeast gene YJR091C) was 0.8, the “The level of expressed mRNA in the presence of chemical substance/The level of expressed mRNA in the absence of chemical substance” value (yeast gene YKL008C) was 1.5 and the “The level of expressed mRNA in the presence of chemical substance/The level of expressed mRNA in the absence of chemical substance” value (yeast gene YKL013C) was 0.7. The “The level of expressed mRNA in the presence of chemical substance/The level of expressed mRNA in the absence of chemical substance” value (yeast gene YKL039W) was 0.9, the “The level of expressed mRNA in the presence of chemical substance/The level of expressed mRNA in the absence of chemical substance” value (yeast gene YKL041W) was 0.8 and the “The level of expressed mRNA in the presence of chemical substance/The level of expressed mRNA in the absence of chemical substance” value (yeast gene YKL093W) was 0.9. The “The level of expressed mRNA in the presence of chemical substance/The level of expressed mRNA in the absence of chemical substance” value (yeast gene YKL096W) was 0.3, the “The level of expressed mRNA in the presence of chemical substance/The level of expressed mRNA in the absence of chemical substance” value (yeast gene YKL097W-A) was 0.7 and the “The level of expressed mRNA in the presence of chemical substance/The level of expressed mRNA in the absence of chemical substance” value (yeast gene YKL117W) was 1.0. For the same compound, the “The level of expressed mRNA in the presence of chemical substance/The level of expressed mRNA in the absence of chemical substance” value (yeast gene YKL139W) was 0.8, the “The level of expressed mRNA in the presence of chemical substance/The level of expressed mRNA in the absence of chemical substance” value (yeast gene YKL165C) was 2.4 and the “The level of expressed mRNA in the presence of chemical substance/The level of expressed mRNA in the absence of chemical substance” value (yeast gene YKL193C) was 0.9. The “The level of expressed mRNA in the presence of chemical substance/The level of expressed mRNA in the absence of chemical substance” value (yeast gene YKR014C) was 1.1, the “The level of expressed mRNA in the presence of chemical substance/The level of expressed mRNA in the absence of chemical substance” value (yeast gene YKR102W) was 0.8 and the “The level of expressed mRNA in the presence of chemical substance/The level of expressed mRNA in the absence of chemical substance” value (yeast gene YLR078C) was 1.0. For the same compound, the “The level of expressed mRNA in the presence of chemical substance/The level of expressed mRNA in the absence of chemical substance” value (yeast gene YLR080W) was 0.8, the “The level of expressed mRNA in the presence of chemical substance/The level of expressed mRNA in the absence of chemical substance” value (yeast gene YLR093C) was 1.0 and the “The level of expressed mRNA in the presence of chemical substance/The level of expressed mRNA in the absence of chemical substance” value (yeast gene YLR118C) was 1.0. The “The level of expressed mRNA in the presence of chemical substance/The level of expressed mRNA in the absence of chemical substance” value (yeast gene YLR120C) was 1.6, the “The level of expressed mRNA in the presence of chemical substance/The level of expressed mRNA in the absence of chemical substance” value (yeast gene YLR136C) was 1.3 and the “The level of expressed mRNA in the presence of chemical substance/The level of expressed mRNA in the absence of chemical substance” value (yeast gene YLR178C) was 2.2. For the same compound, the “The level of expressed mRNA in the presence of chemical substance/The level of expressed mRNA in the absence of chemical substance” value (yeast gene YLR250W) was 1.0, the “The level of expressed mRNA in the presence of chemical substance/The level of expressed mRNA in the absence of chemical substance” value (yeast gene YLR251W) was 0.8 and the “The level of expressed mRNA in the presence of chemical substance/The level of expressed mRNA in the absence of chemical substance” value (yeast gene YLR327C) was 1.4. The “The level of expressed mRNA in the presence of chemical substance/The level of expressed mRNA in the absence of chemical substance” value (yeast gene YLR340W) was 0.9, the “The level of expressed mRNA in the presence of chemical substance/The level of expressed mRNA in the absence of chemical substance” value (yeast gene YLR356W) was 1.5 and the “The level of expressed mRNA in the presence of chemical substance/The level of expressed mRNA in the absence of chemical substance” value (yeast gene YLR362W) was 0.8. The “The level of expressed mRNA in the presence of chemical substance/The level of expressed mRNA in the absence of chemical substance” value (yeast gene YLR391W) was 1.0, the “The level of expressed mRNA in the presence of chemical substance/The level of expressed mRNA in the absence of chemical substance” value (yeast gene YLR429W) was 1.1 and the “The level of expressed mRNA in the presence of chemical substance/The level of expressed mRNA in the absence of chemical substance” value (yeast gene YMR004W) was 1.0. The “The level of expressed mRNA in the presence of chemical substance/The level of expressed mRNA in the absence of chemical substance” value (yeast gene YMR053C) was 0.9, the “The level of expressed mRNA in the presence of chemical substance/The level of expressed mRNA in the absence of chemical substance” value (yeast gene YMR091C) was 0.8 and the “The level of expressed mRNA in the presence of chemical substance/The level of expressed mRNA in the absence of chemical substance” value (yeast gene YMR092C) was 0.9. The “The level of expressed mRNA in the presence of chemical substance/The level of expressed mRNA in the absence of chemical substance” value (yeast gene YMR094W) was 0.9, the “The level of expressed mRNA in the presence of chemical substance/The level of expressed mRNA in the absence of chemical substance” value (yeast gene YMR104C) was 1.0 and the “The level of expressed mRNA in the presence of chemical substance/The level of expressed mRNA in the absence of chemical substance” value (yeast gene YMR219W) was 1.5. For the same compound, the “The level of expressed mRNA in the presence of chemical substance/The level of expressed mRNA in the absence of chemical substance” value (yeast gene YMR226C) was 1.1, the “The level of expressed mRNA in the presence of chemical substance/The level of expressed mRNA in the absence of chemical substance” value (yeast gene YMR238W) was 1.0 and the “The level of expressed mRNA in the presence of chemical substance/The level of expressed mRNA in the absence of chemical substance” value (yeast gene YMR275C) was 0.7. For the same compound, the “The level of expressed mRNA in the presence of chemical substance/The level of expressed mRNA in the absence of chemical substance” value (yeast gene YMR276W) was 1.2, the “The level of expressed mRNA in the presence of chemical substance/The level of expressed mRNA in the absence of chemical substance” value (yeast gene YMR314W) was 1.0 and the “The level of expressed mRNA in the presence of chemical substance/The level of expressed mRNA in the absence of chemical substance” value (yeast gene YNL006W) was 0.7. The “The level of expressed mRNA in the presence of chemical substance/The level of expressed mRNA in the absence of chemical substance” value (yeast gene YNL007C) was 0.7, the “The level of expressed mRNA in the presence of chemical substance/The level of expressed mRNA in the absence of chemical substance” value (yeast gene YNL015W) was 2.8 and the “The level of expressed mRNA in the presence of chemical substance/The level of expressed mRNA in the absence of chemical substance” value (yeast gene YNL093W) was 1.1. The “The level of expressed mRNA in the presence of chemical substance/The level of expressed mRNA in the absence of chemical substance” value (yeast gene YNL147W) was 0.8, the “The level of expressed mRNA in the presence of chemical substance/The level of expressed mRNA in the absence of chemical substance” value (yeast gene YNL333W) was 1.0 and the “The level of expressed mRNA in the presence of chemical substance/The level of expressed mRNA in the absence of chemical substance” value (yeast gene YNL335W) was 0.8. The “The level of expressed mRNA in the presence of chemical substance/The level of expressed mRNA in the absence of chemical substance” value (yeast gene YNR010W) was 0.8, the “The level of expressed mRNA in the presence of chemical substance/The level of expressed mRNA in the absence of chemical substance” value (yeast gene YNR037C) was 0.7 and the “The level of expressed mRNA in the presence of chemical substance/The level of expressed mRNA in the absence of chemical substance” value (yeast gene YNR069C) was 1.2. For the same compound, the “The level of expressed mRNA in the presence of chemical substance/The level of expressed mRNA in the absence of chemical substance” value (yeast gene YOL013C) was 1.1, the “The level of expressed mRNA in the presence of chemical substance/The level of expressed mRNA in the absence of chemical substance” value (yeast gene YOL164W) was 1.1 and the “The level of expressed mRNA in the presence of chemical substance/The level of expressed mRNA in the absence of chemical substance” value (yeast gene YOR036W) was 1.2. For the same compound, the “The level of expressed mRNA in the presence of chemical substance/The level of expressed mRNA in the absence of chemical substance” value (yeast gene YOR117W) was 2.5, the “The level of expressed mRNA in the presence of chemical substance/The level of expressed mRNA in the absence of chemical substance” value (yeast gene YOR124C) was 0.9 and the “The level of expressed mRNA in the presence of chemical substance/The level of expressed mRNA in the absence of chemical substance” value (yeast gene YOR132W) was 0.7. The “The level of expressed mRNA in the presence of chemical substance/The level of expressed mRNA in the absence of chemical substance” value (yeast gene YOR157C) was 1.3, the “The level of expressed mRNA in the presence of chemical substance/The level of expressed mRNA in the absence of chemical substance” value (yeast gene YOR181W) was 0.8 and the “The level of expressed mRNA in the presence of chemical substance/The level of expressed mRNA in the absence of chemical substance” value (yeast gene YOR185C) was 1.5. The “The level of expressed mRNA in the presence of chemical substance/The level of expressed mRNA in the absence of chemical substance” value (yeast gene YOR198C) was 1.5, the “The level of expressed mRNA in the presence of chemical substance/The level of expressed mRNA in the absence of chemical substance” value (yeast gene YOR229W) was 0.8 and the “The level of expressed mRNA in the presence of chemical substance/The level of expressed mRNA in the absence of chemical substance” value (yeast gene YOR259C) was 0.8. The “The level of expressed mRNA in the presence of chemical substance/The level of expressed mRNA in the absence of chemical substance” value (yeast gene YOR261C) was 0.9, the “The level of expressed mRNA in the presence of chemical substance/The level of expressed mRNA in the absence of chemical substance” value (yeast gene YOR265W) was 0.8 and the “The level of expressed mRNA in the presence of chemical substance/The level of expressed mRNA in the absence of chemical substance” value (yeast gene YOR288C) was 1.4. For the same compound, the “The level of expressed mRNA in the presence of chemical substance/The level of expressed mRNA in the absence of chemical substance” value (yeast gene YOR355W) was 0.9, the “The level of expressed mRNA in the presence of chemical substance/The level of expressed mRNA in the absence of chemical substance” value (yeast gene YOR383C) was 1.1 and the “The level of expressed mRNA in the presence of chemical substance/The level of expressed mRNA in the absence of chemical substance” value (yeast gene YPL089C) was 0.7. For the same compound, the “The level of expressed mRNA in the presence of chemical substance/The level of expressed mRNA in the absence of chemical substance” value (yeast gene YPL109C) was 0.9, the “The level of expressed mRNA in the presence of chemical substance/The level of expressed mRNA in the absence of chemical substance” value (yeast gene YPL149W) was 0.9 and the “The level of expressed mRNA in the presence of chemical substance/The level of expressed mRNA in the absence of chemical substance” value (yeast gene YPL154C) was 1.5. For the same compound, the “The level of expressed mRNA in the presence of chemical substance/The level of expressed mRNA in the absence of chemical substance” value (yeast gene YPL230W) was 1.0, the “The level of expressed mRNA in the presence of chemical substance/The level of expressed mRNA in the absence of chemical substance” value (yeast gene YPR066W) was 0.8 and the “The level of expressed mRNA in the presence of chemical substance/The level of expressed mRNA in the absence of chemical substance” value (yeast gene YPR103W) was 1.2. The “The level of expressed mRNA in the presence of chemical substance/The level of expressed mRNA in the absence of chemical substance” value (yeast gene YPR108W) was 1.0, the “The level of expressed mRNA in the presence of chemical substance/The level of expressed mRNA in the absence of chemical substance” value (yeast gene YPR140W) was 0.8 and the “The level of expressed mRNA in the presence of chemical substance/The level of expressed mRNA in the absence of chemical substance” value (yeast gene YPR185W) was 0.8.
